Data published in patent US20250171432A1, “COMPOUNDS AND METHODS OF USE” (Tango Therapeutics, Inc., priority 2022, published 2025).
pIC50: −log10 of the molar value.

What was measured:
Format in all cases: cell-based
[1] = test system: SDMA (PRMT5 activity) in HAP1 MTAP-intact cell line; experiment: SDMA in-cell western assay, HAP1 MTAP-intact; conditions: Homo sapiens, SDMA in-cell western, HAP1 MTAP-intact cells, 24 hours compound incubation
Experimental: (§1) The SAM-cooperative PRMT5 inhibitor, GSK3326595, was sourced from SelleckChem and maintained as a 10 mM DMSO stock. All test compounds are maintained as 10 mM DMSO stocks
(§2) On Day 0, MTAP-intact or MTAP-deleted cells are seeded in a 384-well plate, and incubated in a humidified, 5% CO2 tissue culture incubator for 16-24 hours. On Day 1, the test compounds are dispensed to wells at defined concentrations using a Tecan D300e digital dispenser (n=4), and the volume of DMSO is normalized to highest class volume. Each plate includes wells dosed with defined concentrations of GSK33226595 as a plate control. The compounds are incubated with cells for 24 hours in a humidified, 5% CO2 tissue culture incubator.
(§3) On Day 2, the compound-treated cells are fixed with a final concentration of 4% formaldehyde. The cells are then washed/permeabilized with 1×PBS+0.1% Triton X-100, and then blocked with 5% goat serum/1×TBS.
(§4) The cells are washed with 1×PBS+0.1% Triton X-100, and then washed again with ddH20. The plates are then imaged using a NIR fluorescent imager (LiCor Odyssey).
(§5) For data analysis, the SDMA signal is normalized to the DRAQ5 signal. Assay background is determined by the signal from wells treated with 1 μM GSK3326595, and subtracted from every well. The data are plotted as % of the DMSO control wells for the MTAP-intact and the MTAP-deleted cell lines independently, and fitted to the 4-parameter logistic (4-PL) Hill equation with maximal effect constrained to 0. The fit was performed using GraphPad Prism or the default IC50 fitting procedure in Dotmatics Studies 5.4 as part of a customized data analysis protocol.

[2] = test system: SDMA (PRMT5 activity) in HAP1 MTAP-deleted cell line; experiment: SDMA in-cell western assay, HAP1 MTAP-deleted; conditions: for pIC50 / IC90: Homo sapiens, SDMA in-cell western, HAP1 MTAP-deleted cells, 24 hours compound incubation; for Hap1 MTAP intact/deleted ratio: ratio of SDMA IC50 in HAP1 MTAP-intact to HAP1 MTAP-deleted cell line
Experimental: as §1, §2, §3, §4, §5

[3] = test system: HAP1 MTAP-deleted cell line; experiment: Viability assay (CellTiter-Glo), HAP1 MTAP-deleted; conditions: Homo sapiens, 168 h, HAP1 MTAP-deleted cells, 7 days
Experimental: All test compounds are maintained as 10 mM DMSO stocks.
On Day 0, MTAP-intact and MTAP-deleted cells are seeded in a 96-well plate, and incubated in a humidified, 5 or 10% CO2 tissue culture incubator for 16-24 hours. On Day 1, the test compounds are dispensed to wells at defined concentrations using a Tecan D300e digital dispenser (n=3), and the volume of DMSO is normalized to highest class volume (0.2%). The compound-treated plates are incubated for 7 days in a humidified, 5 or 10% CO2 tissue culture incubator.
On Day 7, the plates are removed from the tissue culture incubator and allowed to equilibrate to room temperature. Then either a ½% volume CellTiter-Glo Luminescent Cell Viability Assay reagent (Promega G7572) is added to each well, or the media is removed from every well and a 1:3 dilution of CellTiter-Glo 2.0 Cell Viability Assay reagent (Promega G9241) in 1×PBS is added. Ten minutes after addition, the luminescent signal is detected by an Envision plate reader. The data are plotted as % of the DMSO control wells for the MTAP-intact and the MTAP-deleted cell lines independently, and fitted to the 4-parameter logistic (4-PL) Hill equation with maximal effect constrained to 0. The fit was performed using GraphPad Prism or the default IC50 fitting procedure in Dotmatics Studies 5.4 as part of a customized data analysis protocol.

pIC50 ([1]; HAP1, 24 h) | pIC50 [2] | IC90 [2] | Compound | Hap1 MTAP intact/deleted ratio [2] | pIC50 [3] | pIC50 [1]
< 7.30 | > 8.30 | < 75 nM | COc1ncc(NC(=O)C(=O)N2C[C@@H](C)CC[C@@H]2c2ccc3sc([C@@H](C)CN4CCCC4)nc3c2)cc1C(N)=O [Compound 62, 2-methoxy-5-[[2-oxo-2-[(2R,5S)-5-methyl-2-[2-[(1S)-1-methyl-2-pyrrolidin-1-yl-ethyl]-1,3-benzothiazol-5-yl]-1-piperidyl]acetyl]amino]pyridine-3-carboxamide] | A (“A” indicates an IC50 ratio greater than or equal to 30 fold) | > 7.00 | 
7.30 to 8.30 | > 8.30 | < 75 nM | CCc1cc(NC(=O)C(=O)N2C[C@@H](C)CC[C@@H]2c2ccc3sc(C(C)CN4CCCC4)nc3c2)cnc1N (single isomer, unassigned) [Compound 2] | B (“B” indicates an IC50 ratio greater than or equal to 15 fold but lower than 30 fold) | > 7.00 | 
7.30 to 8.30 | > 8.30 | < 75 nM | CCc1cc(NC(=O)C(=O)N2C[C@@H](C)CC[C@@H]2c2ccc3sc([C@@H]4CN(C)C(C)(C)C4)nc3c2)cnc1N (single isomer, unassigned) [Compound 56] | B (“B” indicates an IC50 ratio greater than or equal to 15 fold but lower than 30 fold) | > 7.00 | 
< 7.30 | > 8.30 | < 75 nM | COc1ncc(NC(=O)C(=O)N2C[C@@H](C)CC[C@@H]2c2ccc3sc(CC4(C)CCN(C)CC4)nc3c2)cc1C(N)=O [Compound 22, 5-(2-((2R,5S)-2-(2-((1,4-dimethylpiperidin-4-yl)methyl)benzo[d]thiazol-5-yl)-5-methylpiperidin-1-yl)-2-oxoacetamido)-2-methoxynicotinamide] | B (“B” indicates an IC50 ratio greater than or equal to 15 fold but lower than 30 fold) | > 7.00 | 
< 7.30 | > 8.30 | < 75 nM | CCc1cc(NC(=O)C(=O)N2C[C@@H](C)CC[C@@H]2c2ccc3c(C)n(C4CCN(C)CC4)nc3c2)cnc1N [Compound 19, N-(6-amino-5-ethyl-3-pyridyl)-2-oxo-2-[(2R,5S)-5-methyl-2-[3-methyl-2-(1-methyl-4-piperidyl)indazol-6-yl]-1-piperidyl]acetamide] | A (“A” indicates an IC50 ratio greater than or equal to 30 fold) | > 7.00 | 
7.30 to 8.30 | > 8.30 | < 75 nM | CCc1cc(NC(=O)C(=O)N2C[C@@H](C)CC[C@@H]2c2ccc3sc(C4=CCN(C)CC4)nc3c2)cnc1N [Compound 28, N-(6-amino-5-ethylpyridin-3-yl)-2-((2R,5S)-5-methyl-2-(2-(1-methyl-1,2,3,6-tetrahydropyridin-4-yl)benzo[d]thiazol-5-yl)piperidin-1-yl)-2-oxoacetamide] | A (“A” indicates an IC50 ratio greater than or equal to 30 fold) | > 7.00 | 
< 7.30 | > 8.30 | < 75 nM | COc1ncc(NC(=O)C(=O)N2C[C@@H](C)CC[C@@H]2c2ccc3sc(C[C@H]4CCN(C)C[C@@H]4C)nc3c2)cc1C(N)=O (racemic) [Compound 64, 5-(2-((2R,5S)-2-(2-((1,3-dimethylpiperidin-4-yl)methyl)benzo[d]thiazol-5-yl)-5-methylpiperidin-1-yl)-2-oxoacetamido)-2-methoxynicotinamide] | A (“A” indicates an IC50 ratio greater than or equal to 30 fold) | > 7.00 | 
< 7.30 | 7.30 to 8.30 | 75 to 125 nM | CCc1cc(NC(=O)C(=O)N2C[C@@H](C)CC[C@@H]2c2cccc(OC3CCN(C)C3)c2)cnc1N (mixture of isomers) [Compound 39, N-(6-amino-5-ethylpyridin-3-yl)-2-((2R,5S)-5-methyl-2-(3-((1-methylpyrrolidin-3-yl)oxy)phenyl)piperidin-1-yl)-2-oxoacetamide] | A (“A” indicates an IC50 ratio greater than or equal to 30 fold) | > 7.00 | 
< 7.30 | 7.30 to 8.30 | > 125 nM | COc1ncc(NC(=O)C(=O)N2CCCC[C@@H]2c2ccc3sc(C4CCN(C)CC4)nc3c2)cc1C(N)=O [Compound 29, 2-methoxy-5-(2-(2-(2-(1-methylpiperidin-4-yl)benzo[d]thiazol-5-yl)piperidin-1-yl)-2-oxoacetamido)nicotinamide] | A (“A” indicates an IC50 ratio greater than or equal to 30 fold) | 6.00 to 7.00 | 
< 7.30 | > 8.30 | < 75 nM | CCc1cc(NC(=O)C(=O)N2C[C@@H](C)CC[C@@H]2c2cccc(OC[C@H](C)N(C)C)c2)cnc1N [Compound 66, N-(6-amino-5-ethylpyridin-3-yl)-2-((2R,5S)-2-(3-((S)-2-(dimethylamino)propoxy)phenyl)-5-methylpiperidin-1-yl)-2-oxoacetamide] | A (“A” indicates an IC50 ratio greater than or equal to 30 fold) | > 7.00 | 
< 7.30 | > 8.30 | < 75 nM | COc1ncc(NC(=O)C(=O)N2C[C@@H](C)CC[C@@H]2c2ccc3sc(C45CCC(CC4)N(C)C5)nc3c2)cc1C(N)=O [Compound 99, 2-methoxy-5-(2-((2R,5S)-5-methyl-2-(2-(2-methyl-2-azabicyclo[2.2.2]octan-4-yl)benzo[d]thiazol-5-yl)piperidin-1-yl)-2-oxoacetamido)nicotinamide] | A (“A” indicates an IC50 ratio greater than or equal to 30 fold) | > 7.00 | 
< 7.30 | < 7.30 | > 125 nM | CCc1cc(NC(=O)C(=O)N2C[C@H](C)CC[C@@H]2c2ccc3sc([C@H]4C[C@H](N(C)C)C4)nc3c2)cnc1N [Compound 119, N-(6-amino-5-ethyl-3-pyridyl)-2-oxo-2-[(2R,5R)-2-[2-[3-(dimethylamino)cyclobutyl]-1,3-benzothiazol-5-yl]-5-methyl-1-piperidyl]acetamide] | C (“C” indicates an IC50 ratio of less than 15 fold) | < 6.00 | 
7.30 to 8.30 | > 8.30 | < 75 nM | CCc1cc(NC(=O)C(=O)N2C[C@@H](C)CC[C@@H]2c2ccc3sc(CC4(C)CCN(C)CC4)nc3c2)cnc1N [Compound 6, N-(6-amino-5-ethylpyridin-3-yl)-2-((2R,5S)-2-(2-((1,4-dimethylpiperidin-4-yl)methyl)benzo[d]thiazol-5-yl)-5-methylpiperidin-1-yl)-2-oxoacetamide] | B (“B” indicates an IC50 ratio greater than or equal to 15 fold but lower than 30 fold) | > 7.00 | 

Compound | pIC50 ([1]; HAP1, 24 h) | pIC50 [2] | IC90 [2] | Hap1 MTAP intact/deleted ratio [2] | pIC50 [3] | pIC50 [1]
COc1ncc(NC(=O)C(=O)N2C[C@@H](C)CC[C@@H]2c2ccc3sc(C4=C(C)CN(C)CC4)nc3c2)cc1C(N)=O [Compound 61, 5-(2-((2R,5S)-2-(2-(1,5-dimethyl-1,2,3,6-tetrahydropyridin-4-yl)benzo[d]thiazol-5-yl)-5-methylpiperidin-1-yl)-2-oxoacetamido)-2-methoxynicotinamide] |  | > 8.30 | < 75 nM | A (“A” indicates an IC50 ratio greater than or equal to 30 fold) | > 7.00 | < 7.30
